For one experiment, the system named is mARt877s. As to the kind of experiment: AR transactivation, transient transfection CAT reporter assay, mutant AR. The format is cell-based, human. On the technique in general: Reporter assays use an easily measured gene product as a stand-in for the process of interest.
Another experiment addresses T1, wtAR (Homo sapiens, UniProt P10275).
T1 sequence (P10275 1-920): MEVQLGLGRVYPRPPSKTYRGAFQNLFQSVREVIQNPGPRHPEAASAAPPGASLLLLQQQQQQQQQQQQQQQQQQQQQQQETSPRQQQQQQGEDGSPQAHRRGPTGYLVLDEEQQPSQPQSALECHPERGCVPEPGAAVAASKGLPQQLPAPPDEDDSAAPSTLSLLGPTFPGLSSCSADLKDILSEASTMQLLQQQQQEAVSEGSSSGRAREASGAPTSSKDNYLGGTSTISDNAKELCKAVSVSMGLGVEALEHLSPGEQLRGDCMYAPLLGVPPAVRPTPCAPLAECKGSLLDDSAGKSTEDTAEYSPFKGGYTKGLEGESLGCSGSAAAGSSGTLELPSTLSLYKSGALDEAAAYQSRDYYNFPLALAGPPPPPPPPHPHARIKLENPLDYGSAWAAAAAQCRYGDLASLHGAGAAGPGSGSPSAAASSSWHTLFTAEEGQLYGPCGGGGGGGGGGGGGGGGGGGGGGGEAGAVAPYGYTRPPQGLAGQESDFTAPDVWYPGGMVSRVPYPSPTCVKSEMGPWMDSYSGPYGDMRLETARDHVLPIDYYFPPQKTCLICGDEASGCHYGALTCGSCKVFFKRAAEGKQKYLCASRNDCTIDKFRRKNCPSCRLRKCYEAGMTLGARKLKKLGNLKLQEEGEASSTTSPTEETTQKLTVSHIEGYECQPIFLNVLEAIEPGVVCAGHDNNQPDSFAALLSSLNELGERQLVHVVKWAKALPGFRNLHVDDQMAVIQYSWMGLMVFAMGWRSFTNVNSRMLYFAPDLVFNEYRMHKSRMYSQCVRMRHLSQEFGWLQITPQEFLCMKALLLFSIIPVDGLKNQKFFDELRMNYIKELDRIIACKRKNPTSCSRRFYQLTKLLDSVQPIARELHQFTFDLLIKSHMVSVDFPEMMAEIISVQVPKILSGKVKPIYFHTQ
The experiment in a line: AR transactivation, transient transfection with MMTV-CAT reporter in DU145 cells. As to conditions: for AR transcriptional activity induction: 10 nM E2 or 1 μM HF.

For experiment [1], the target named is T2, mARe708k (Homo sapiens, UniProt P10275, E710K).
T2 construct: expressed in transfected cells; host or cells: DU145
T2 sequence (P10275 1-920 E710K): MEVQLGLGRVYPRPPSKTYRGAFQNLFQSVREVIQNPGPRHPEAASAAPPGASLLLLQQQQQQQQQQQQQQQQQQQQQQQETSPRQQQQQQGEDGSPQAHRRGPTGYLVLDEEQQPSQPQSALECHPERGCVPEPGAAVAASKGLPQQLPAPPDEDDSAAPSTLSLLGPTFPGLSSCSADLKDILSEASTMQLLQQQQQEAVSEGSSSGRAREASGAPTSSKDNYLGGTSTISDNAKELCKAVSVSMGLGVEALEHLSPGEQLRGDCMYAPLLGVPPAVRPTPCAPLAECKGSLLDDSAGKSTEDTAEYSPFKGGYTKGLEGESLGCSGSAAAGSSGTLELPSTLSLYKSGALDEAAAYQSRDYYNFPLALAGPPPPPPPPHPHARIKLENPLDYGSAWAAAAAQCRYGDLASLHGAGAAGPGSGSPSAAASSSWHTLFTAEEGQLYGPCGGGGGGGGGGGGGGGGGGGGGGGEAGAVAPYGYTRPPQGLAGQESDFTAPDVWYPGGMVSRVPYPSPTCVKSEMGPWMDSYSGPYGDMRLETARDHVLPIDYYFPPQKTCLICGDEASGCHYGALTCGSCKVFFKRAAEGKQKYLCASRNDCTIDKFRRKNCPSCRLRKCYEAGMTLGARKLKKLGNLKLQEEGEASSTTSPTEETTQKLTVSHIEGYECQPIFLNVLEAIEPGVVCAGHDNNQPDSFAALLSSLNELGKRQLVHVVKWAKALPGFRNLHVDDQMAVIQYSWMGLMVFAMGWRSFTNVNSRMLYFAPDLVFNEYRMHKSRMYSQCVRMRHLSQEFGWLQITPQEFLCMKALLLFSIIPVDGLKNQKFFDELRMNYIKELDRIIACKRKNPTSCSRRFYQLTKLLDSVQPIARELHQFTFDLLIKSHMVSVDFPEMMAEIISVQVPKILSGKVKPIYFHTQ
As to the kind of experiment: AR transactivation, transient transfection CAT reporter assay, mutant AR. In kind it is cell-based.

Experiment [2] addresses T3, mARe708k (Homo sapiens, UniProt P10275).
T3 construct: expressed in transfected cells; host or cells: DU145
T3 sequence (P10275 1-920 E710K): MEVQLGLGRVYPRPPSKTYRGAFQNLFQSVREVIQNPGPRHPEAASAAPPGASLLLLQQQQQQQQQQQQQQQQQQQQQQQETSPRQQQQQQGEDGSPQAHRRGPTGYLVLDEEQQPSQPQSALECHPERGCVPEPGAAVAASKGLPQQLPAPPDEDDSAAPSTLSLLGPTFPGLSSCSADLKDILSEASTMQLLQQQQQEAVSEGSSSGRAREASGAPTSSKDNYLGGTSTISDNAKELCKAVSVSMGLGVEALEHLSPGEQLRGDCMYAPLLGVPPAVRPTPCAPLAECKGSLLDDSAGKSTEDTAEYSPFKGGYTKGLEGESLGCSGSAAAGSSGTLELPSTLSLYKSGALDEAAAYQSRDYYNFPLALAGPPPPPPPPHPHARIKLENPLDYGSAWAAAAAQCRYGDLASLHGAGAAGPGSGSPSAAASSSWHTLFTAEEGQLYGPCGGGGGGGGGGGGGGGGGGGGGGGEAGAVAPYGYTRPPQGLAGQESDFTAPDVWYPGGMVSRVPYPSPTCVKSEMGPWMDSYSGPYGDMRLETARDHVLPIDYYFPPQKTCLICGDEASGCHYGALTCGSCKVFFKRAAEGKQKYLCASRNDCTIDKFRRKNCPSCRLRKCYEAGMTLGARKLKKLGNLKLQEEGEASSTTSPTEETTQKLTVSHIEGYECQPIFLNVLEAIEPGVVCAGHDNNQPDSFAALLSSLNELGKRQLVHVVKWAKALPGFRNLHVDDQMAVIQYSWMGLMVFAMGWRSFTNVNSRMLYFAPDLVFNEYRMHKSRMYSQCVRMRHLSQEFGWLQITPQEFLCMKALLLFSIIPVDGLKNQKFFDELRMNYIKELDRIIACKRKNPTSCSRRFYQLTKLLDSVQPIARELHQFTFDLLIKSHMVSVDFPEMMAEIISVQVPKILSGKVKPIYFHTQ
The description is as above. The conditions noted are these: mARe708k cotransfected with Rb and/or ARA70; 10 nM E2 or 1 μM HF. The format is cell-based.

Experiment [3] has as its system AR. The experiment in a line: Mammalian two-hybrid assay with CAT reporter in DU145 cells. In kind it is cell-based, human. The conditions noted are these: DU145; 10 nM DHT, or E2 or HF. From the text: The mammalian two-hybrid system employed was essentially the protocol of Clontech (California), with the following modifications. […] The hinge and LBD of wtAR were then inserted into pGAL0. Similarly, the VP16 activation domain was fused to pCMX under the control of a CMV promoter, and designated pCMX-VP16 (provided by Dr. R. M. Evan).

The target in experiment [4] is T4, AR (Homo sapiens, UniProt P10275).
T4 sequence (P10275 1-920): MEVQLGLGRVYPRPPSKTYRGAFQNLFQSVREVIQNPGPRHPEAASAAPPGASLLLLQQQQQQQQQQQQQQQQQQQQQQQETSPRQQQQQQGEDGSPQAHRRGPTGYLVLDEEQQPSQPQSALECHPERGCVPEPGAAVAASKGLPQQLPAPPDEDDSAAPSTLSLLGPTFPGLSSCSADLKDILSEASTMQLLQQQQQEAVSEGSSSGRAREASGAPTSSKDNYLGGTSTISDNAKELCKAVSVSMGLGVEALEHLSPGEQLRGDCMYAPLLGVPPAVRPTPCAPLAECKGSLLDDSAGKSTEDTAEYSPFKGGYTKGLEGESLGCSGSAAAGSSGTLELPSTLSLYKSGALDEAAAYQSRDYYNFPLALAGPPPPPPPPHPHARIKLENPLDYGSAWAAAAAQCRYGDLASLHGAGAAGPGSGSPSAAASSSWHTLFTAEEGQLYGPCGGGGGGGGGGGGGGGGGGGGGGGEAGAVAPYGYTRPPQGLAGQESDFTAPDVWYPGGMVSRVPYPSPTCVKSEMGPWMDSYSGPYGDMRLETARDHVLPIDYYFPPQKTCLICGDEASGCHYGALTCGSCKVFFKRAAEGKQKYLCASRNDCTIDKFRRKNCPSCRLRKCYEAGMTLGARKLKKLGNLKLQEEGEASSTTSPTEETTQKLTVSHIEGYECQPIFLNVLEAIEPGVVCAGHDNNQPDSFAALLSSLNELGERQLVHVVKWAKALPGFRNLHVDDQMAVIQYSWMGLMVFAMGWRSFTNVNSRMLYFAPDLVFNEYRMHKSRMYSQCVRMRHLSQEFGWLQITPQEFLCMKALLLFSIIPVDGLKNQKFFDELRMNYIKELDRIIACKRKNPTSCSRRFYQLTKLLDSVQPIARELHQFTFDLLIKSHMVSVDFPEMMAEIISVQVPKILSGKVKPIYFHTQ
As to the kind of experiment: AR-activated transcription (CAT) in transfected H1299 cells. The format is cell-based. The arrangement: expressed in transfected cells; host or cells: DU145 (A1), NCI H1299 (A7), PC3 (A8). As to conditions: H1299 cells with endogenous ARA54. An excerpt: Since the C-terminal region of ARA54 (a.a. 361–471 of SEQ ID NO:2) isolated from prostate cDNA library has shown to be sufficient to interact with AR in yeast two-hybrid assays, we further investigated whether it could squelch the effect of ARA54 on AR-activated transcription in H1299 cells, which contain endogenous ARA54. The C-terminal region of ARA54 inhibits AR-mediated transcription by up to 70%; coexpression of exogenous full-length ARA54 reverses this squelching effect in a dose-dependent manner.
Human small lung carcinoma H1299 cell line, which has no endogenous AR protein, were transfected with AR and ARA24/Ran. Because ARA24/Ran is one of the most abundant and ubiquitously expressed proteins in various cells, both sense and antisense ARA24/Ran mammalian expression plasmids were tested.

Take `CC(C)(O)C(=O)Nc1ccc([N+](=O)[O-])c(C(F)(F)F)c1` [HF, hydroxyflutamide, reference compound]: the “response of Art877a transactivation to ligand” value with mARt877s (absence of ARA54, E2 10^-9-10^-7 M, HF 10^-7-10^-5 M) is “responded”. For the same molecule, the “response of LNCaP mAR to ligand compared to wtAR” value in the experiment with mARt877s (compared to wtAR) is “responded much better”. In addition, at wtAR (E2 10^-9-10^-7 M or HF 10^-7-10^-5 M, in the presence or absence of ARA54), the “response of wtAR transactivation to ligand” value is recorded as “responded only marginally”. Moreover, the “AR transcriptional activity induction” value at wtAR (wild type AR cotransfected with Rb and ARA70) was 12 fold; on wtAR (wild type AR cotransfected with Rb or ARA70), 3–4 fold; on mARe708k [2] it was “almost no induction”. The “response of wtAR transcriptional activity to ligand” value on wtAR (without ARA55, only at higher concentrations (10^-7 M for E2, 10^-5 M for HF)) is recorded as “responded marginally”. For the same molecule, at mARe708k [1], the “agonistic activity toward ARe708k” value is on record as “no agonistic activity”. In addition, in the experiment with AR [3], the “CAT activity with GAL0AR and VP16-ARA55 cotransfected” value is given as “not induced”.

B1: C-terminal region of ARA54: a.a. 361–471 of ARA54, dominant negative inhibitor of AR-mediated transcription (protein)
chain: ANFNQSGNIADSSLSFTFTNSSNGPNLITTQTNSQALSQPIASSNVHDNFMNNEITASKIDDGNNSKPLSPGWTDQTAYNAFGITTGMFNTTTMDDVYNYLFDDEDTPPNPKKERNEYLQADEANKRLLDQRYGKRVIQKALEEMESKEWLEKNSKSCPCCGTPIEKLDGCNKMTCTGCMQYFCWICMGSLSRANPYKHFNDPGSPCFNRLFYAVDVDDDIWEDE
Regarding B1, in the experiment with AR [4], the “inhibition of AR-mediated transcription” value is recorded as “up to 70%”.

These data come from patent publication US7052908B2, “Androgen receptor coactivators” (University of Rochester, priority 1998, dated 2006).
